Patent US10463747B2, “Method of developing a vaccine using peptide-poly IC complexes” (H. Lee Moffitt Cancer Center and Research Institute, Inc., priority 2011, dated 2019)
Where no end group is shown, it is not given here.

Columns and labels:
MHC molecule = biological target: T1, MHC molecule (Mus musculus, UniProt P01899); conditions: arginine to alanine substitution at position 1; cited from earlier work
T1 sequence (P01899 25-362): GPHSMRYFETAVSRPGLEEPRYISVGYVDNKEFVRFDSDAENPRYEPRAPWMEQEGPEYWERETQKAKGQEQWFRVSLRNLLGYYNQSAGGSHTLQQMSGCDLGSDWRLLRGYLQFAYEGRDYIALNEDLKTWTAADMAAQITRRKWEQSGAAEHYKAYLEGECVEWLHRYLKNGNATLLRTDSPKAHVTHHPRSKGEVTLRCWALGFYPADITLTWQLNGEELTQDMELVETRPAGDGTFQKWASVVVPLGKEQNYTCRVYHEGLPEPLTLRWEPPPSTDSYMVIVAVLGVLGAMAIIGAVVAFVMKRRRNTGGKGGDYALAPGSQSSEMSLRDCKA
T1 sequence (P01887 21-119 partner): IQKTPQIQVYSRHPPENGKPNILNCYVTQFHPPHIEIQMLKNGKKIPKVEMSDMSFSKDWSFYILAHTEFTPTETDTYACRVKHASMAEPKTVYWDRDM

[1] = system: CD8 T cell responses of peptide epitope HPV16-E749 (RAHYNIVTF); test: Tetramer analysis of CD8 T cell responses after i.v. prime-boost vaccination with HPV16-E7 peptide mixed with Poly-IC; type: in vivo, mice; conditions: for immunogenicity of peptide epitope (CD8 T cell response, tetramer analysis): i.v. prime-boost 2 weeks apart, 30 μg peptide mixed with 50 μg Poly-IC, blood 7 days after boost
Procedure: CD8 T cell responses of peptide epitope HPV16-E749 (RAHYNIVTF) (SEQ ID NO:8) and HPV16-E749/1A (AAHYNIVTF) (SEQ ID NO:9) measured by tetramer analysis after i.v. prime-boost (2 weeks apart) vaccination using 30 μg peptide mixed with 50 μg Poly-IC. Immune responses in 3 individual mice measured 7 days after the boost in blood samples. Numbers below the oval gates correspond to the % tetramer positive (antigen-specific) cells of the total CD8 T cell population.
(§1) Comparison of CD8 T cell responses of peptide epitope HPV16-E749 (RAHYNIVTF) (SEQ ID NO:8) injected together with 50 μg Poly-IC (top panels) or 5 hours after the Poly-IC (bottom panels). Immune responses in 3 individual mice measured 7 days after an identical boost (12 days apart) in blood samples. Numbers below the oval gates correspond to the % tetramer positive (antigen-specific) cells of the total CD8 T cell population.

[2] = system: CD8 T cell responses of peptide epitope Trp1455/9M (TAPDNLGYM); test: Tetramer analysis of CD8 T cell responses after i.v. prime-boost vaccination with modified Trp1 peptide mixed with Poly-IC; type: in vivo, mice; conditions: for immunogenicity of peptide epitope (CD8 T cell response, tetramer analysis): i.v. prime-boost 2 weeks apart, blood 7 days after boost; for immunogenicity of peptide epitope compared with hepta-arginine (R)7 tail: three-arginine tail, FIG. 2
Procedure: CD8 T cell responses of peptide epitope Trp1455/9M (TAPDNLGYM) (SEQ ID NO:2) containing 3 types of tails with charged amino acids (R, K or E) and a short linker (MFV) (SEQ ID NO:3) were measured by tetramer analysis after i.v. prime-boost (2 weeks apart) vaccination using 120 μg peptide mixed with 50 μg Poly-IC. These sequences correspond to (R)7-MFV-TAPDNLGYM (SEQ ID NO:4); (K)7-MFV-TAPDNLGYM (SEQ ID NO:5); and (E)7-MFV-TAPDNLGYM (SEQ ID NO:6) respectively. Immune responses in 3 individual mice measured 7 days after the boost in blood samples. Numbers below the rectangular gates correspond to the % tetramer positive (antigen-specific) cells of the total CD8 T cell population.
The sequence for the three-arginine tail is (R)3-MFVTAPDNLGYM (SEQ ID NO:7).
CD8 T cell responses of peptide epitope Trp1455/9M (TAPDNLGYM) (SEQ ID NO:2) containing 2 types of hydrophobic tails (LMFVMFV-TAPDNLGYM (SEQ ID NO:10) and (Pam)2KMFV-TAPDNLGYM (SEQ ID NO:11)) at the amino terminus end were measured by tetramer analysis after i.v. prime-boost (2 weeks apart) vaccination using peptide mixed with 50 μg Poly-IC. Immune responses in 3 individual mice measured 7 days after the boost in blood samples. Numbers below the rectangular gates correspond to the % tetramer positive (antigen-specific) cells of the total CD8 T cell population.
as §1, with “epitope (pam)2Trp455/9M [(Pam)2KMFV-TAPDNLGYM]” for “epitope HPV16-E749 (RAHYNIVTF)”, “ID NO:11)” for “ID NO:8)”, “or 3.5” for “or 5”, “Immune response” for “Immune responses”, “the rectangular” for “the oval”

[3] = system: antigen-specific CD8 T lymphocytes; test: Immunogenicity of modified peptides with immune adjuvants (general observations, adjuvant type and timing); conditions: in vivo
Procedure: Arginine-containing peptides and the hydrophobic peptides are highly immunogenic when administered together with Poly-IC because they are able to form complexes. This is supported by the observations that if the Poly-IC is injected intravenously (i.v) 3.5 to 5 hr before the peptide (also i.v.), then the immune responses are dramatically lower as compared to circumstances when both peptide and Poly-IC are administered together (FIGS. 7 and 8).
The inventors are developing assays that measure the formation of these complexes. The data has been observed with Poly-IC, which is both a TLR3 agonist and ligand for RIG-1 like receptors, or cytoplasmic helicases.
There are examples of antigens (proteins or peptides) that are conjugated to antibodies specific for cell surface molecules expressed on antigen-presenting cells in order to specifically target the antigens to these cells to generate immune responses. […] This is likely due to the antibodies, while targeting the antigen to the appropriate antigen-presenting cell, are not sufficiently stimulatory to activate the cell to become optimal to stimulate the T cell responses. In addition, the ODN-CpG-peptide complexes are not captured as efficiently due to their relatively small size, as compared to the peptide-poly-IC complexes, by the scavenger receptors on the antigen-presenting cells. […]

[4] = hydrophobic tail at amino terminus, peptide mixed with 50 μg Poly-IC
[5] = 50 μg Poly-IC, 7 days after identical boost (12 days apart), blood

AAHYNIVTF (peptide epitope hpv16-e7 49/1a) [HPV16-E749/1A]
capacity of the peptide to bind to the MHC molecule and be recognized by T cells (MHC molecule): does not interfere with the capacity of the peptide to bind to the MHC molecule and be recognized by T cells
immunogenicity of peptide epitope (CD8 T cell response, tetramer analysis) [1]: reduces its immunogenicity
immunogenicity of peptide epitope (CD8 T cell response, tetramer analysis) ([1]; listed as AAHYNIVTF): reduced dramatically the immunogenicity

LMFVMFV-TAPDNLGYM (LMFVMFVTAPDNLGYM; peptide epitope Trp1 455/9m with hydrophobic tail)
immunogenicity of peptide epitope (CD8 T cell response, tetramer analysis) [2, 4]: increase the immunogenicity

(Pam)2KMFV-TAPDNLGYM (KMFVTAPDNLGYM; not fully specified (residue 1); printed as (Pam)2KMFV-TAPDNLGYM)
immune response, peptide injected together with Poly-IC versus 3.5 hours after the Poly-IC [2, 5]: stronger immune responses
immunogenicity of peptide epitope (CD8 T cell response, tetramer analysis) [2, 4]: increase the immunogenicity

RAHYNIVTF (peptide epitope hpv16-e7 49) [HPV16-E749]
immune response, peptide injected together with Poly-IC versus 5 hours after the Poly-IC [1, 5]: stronger immune responses
immunogenicity of peptide epitope (CD8 T cell response, tetramer analysis) [1]: more immunogenic than AAHYNIVTF

(R)7-MFV-TAPDNLGYM (RRRRRRRMFVTAPDNLGYM; 7 arginine tail epitope Trp1 455/9m)
immunogenicity of peptide epitope (CD8 T cell response, tetramer analysis) ([2]; charged amino acid tail + MFV linker, 120 μg peptide mixed with 50 μg Poly-IC): increases the immunogenicity
immunogenicity of peptide epitope (CD8 T cell response, tetramer analysis) ([2]; charged amino acid tail + MFV linker, 120 μg peptide mixed with 50 μg Poly-IC, listed as R7): function as good immunogens

(R)3-MFVTAPDNLGYM (RRRMFVTAPDNLGYM; 3 arginine tail epitope Trp1 455/9m)
immunogenicity of peptide epitope compared with hepta-arginine (R)7 tail [2]: increases immunogenicity of a peptide epitope similar to the results obtained from a hepta-arginine (R)7 tail
immunogenicity of peptide epitope compared with hepta-arginine (R)7 tail ([2]; listed as (R)3): function as well as peptides with seven arginines (R)7

polyinosinic:polycytidylic acid [poly-IC]
effect on immune responses of injection prior to the injection of peptide-poly-IC complexes [3]: inhibition of the immune responses
generation of secondary (booster) immune responses by adjuvant [3]: very potent
